Source: patent publication US8512678B2, “Non-invasive, in vivo fluorescent imaging of the nervous system in whole living animal” (priority 2005, dated 2013)
“Also recorded” adds a separate entry of the source.

Key:
[1] = tested on: GFP expression in the astrocytes; experiment: Confocal imaging of endogenous GFP with GFAP immunostaining in brain cryosections; format: in vivo, mouse; conditions: for GFP expression in the astrocytes: Tg mice
Experimental: (§1) In order to determine whether the photons were being emitted from the astrocytes in the CNS, the brains were harvested and fixed with 4% paraformaldehyde in 0.1 M phosphate buffer saline (PBS, pH 7.4) for 4 hr at 4° C. The brains were then washed three times in PBS with an incubation time of 15 min each time before soaking in 30% sucrose overnight at 4° C. All brains were embedded in freezing medium after immersing the tissues in liquid nitrogen prior to mounting and sectioning them using a cryostat (Leica Microsystems, Nussloch GmbH; CM-3050S). Coronal cryosections, 20 μm in thickness of the substantia nigra (bregma −3.16 mm, interaural 0.64 mm) were used for immunohistochemistry according to the Atlas of Mouse brain (Franklin and Paxinos, 2001). Each of the control and treated group contained 4 animals […].
For tyrosine hydroxylase (TH) and GFAP immunostaining, a rabbit anti-TH polyclonal antibody (Chemicon International, Temecula, Calif., USA; Ab-152) and a rabbit anti-GFAP polyclonal antibody (DakoCytomation, Denmark; Z-0334) were used. The cryosections were washed for 5 min in 0.15 M 1×PBS followed by incubating for 4 hr at 4° C. in blocking solution of PBS containing 0.1% (v/v) Triton X-100 and 10% nonimmune goat serum. The cryosections were then washed in 0.15 M 1×PBS three times, each for 15 min. The brain sections were then incubated overnight with anti-TH antibody (1:200) and anti-GFAP antibody (1:200), in 1×PBS containing 0.01% (v/v) Triton X-100 and 1% nonimmune goat serum at 4° C. After a three times 15 min rinse in 1×PBS, the sections were incubated with Texas-red conjugated goat polyclonal to rabbit secondary IgG antibody (Abcam Ltd, Cambridge, U.K.; Ab-7088) at 1:100 dilution in PBS containing 0.01% (v/v) Triton X-100 and 1% nonimmune goat serum for 2 hr at room temperature. After another three times 15 min rinse in 1×PBS, the sections were coverslipped in 10 μl of the fluorescence medium and viewed under the confocal laser scanning microscope (Olympus Optical Co. Ltd. Tokyo, Japan; IX-71).

[2] = tested on: tyrosine hydroxylase (TH) immuno-positive dopaminergic neurons; experiment: TH immunostaining in the substantia nigra compact (SNC); format: in vivo, mouse; conditions: 6 hr after 12 mg/kg sc, neonatal mice
Experimental: as §1
For tyrosine hydroxylase (TH) and GFAP immunostaining, a rabbit anti-TH polyclonal antibody (Chemicon International, Temecula, Calif., USA; Ab-152) and a rabbit anti-GFAP polyclonal antibody (DakoCytomation, Denmark; Z-0334) were used. […] After another three times 15 min rinse in 1×PBS, the sections were coverslipped in 10 μl of the fluorescence medium and viewed under the confocal laser scanning microscope (Olympus Optical Co. Ltd. Tokyo, Japan; IX-71).

GFAP-GFP transgene = experiment: Non-invasive in vivo neural imaging of GFAP-GFP transgenic neonatal mice (relative fluorescence, IVIS); set-up: species or system mouse; conditions: for increase in relative fluorescence (RF), mean, compared to 0 hr: 6 hr after treatment; for increase in relative fluorescence (RF), mean, over the control group: 6 hr post-treatment, P<0.01
Source text: The generation and genotyping of the transgenic GFAP-GFP mice were done as previously described (Zhuo et al., 1997). Neonatal mice of FVB/N background at 4 days of age, weighing 2.0 g-2.5 g were used in the present study. Animal husbandry was provided by National University of Singapore animal holding unit facility. The experimental protocol covering the current study was approved by the Institutional Animal Care and Use Committee.
The neonatal mice received a single subcutaneous (sc) injection of 2′-CH3-MPTP (12 mg/kg in saline) at 0 hour. Saline was used as a vehicle for the control group. Neural imaging was subsequently performed at 2 hr, 4 hr, 6 hr and 8 hr post-treatment.
Non-invasive imaging was conducted using an IVIS Imaging System 100 Series (Xenogen Corp., Alameda, Calif., U.S.A.). A 2′-CH3-MPTP-treated pair comprising of a transgenic and a non-transgenic neonatal mouse was positioned beside one another and held in position without anesthesia by physically restraining the mice on the lower back using tape. […] Subsequently, the pair of neonatal mice were fluorescently imaged with the GFP filter set equipped with the IVIS system. The image acquisition time was ten seconds. The same procedure was applied on the control pair injected with saline as well. Result of the neurotoxic effect of 2′-CH3-MPTP on the mice was expressed as relative fluorescence (RF), a ratio between the total GFP fluorescent signals detected from the region of interest (ROI) in transgenic (Tg) mouse and the tissue autofluorescence signals from the ROI in non-transgenic (nTg) mouse (TgROI/nTgROI). The area of the ROI for both mice is exactly the same and is identical throughout all the ROI used in the study to quantify the radiances. To minimize any variations due to the imaging system, three images were captured for each pair of treated and control mice and the mean value derived used as the quantitative reading for that particular pair. The values of the control (n=5 pairs of mice) and treated groups (n=5 pairs of mice) were expressed as means±SEM and statistical significance was evaluated using Student's two-tailed paired t-test.
The neurotoxin used was 2′-CH3-MPTP.
The neurotoxins used were 2′-CH3-MPTP and Kainic Acid (KA). […] KA was used in dosages 2 mg/kg with one injection. All injections were carried out subcutaneously.

GFP gene expression = experiment: Real-time RT-PCR of brain RNA, GFP gene expression; format: in vivo, mouse; conditions: transgenic mice, 2 hours after treatment, 1×2 mg/kg, p<0.05
Experimental: (§2) […] The brain was removed and then lysed in buffer RA1 and β-mercaptoethanol. Total RNA from the brain was isolated using NucleoSpin® RNA II kit. Total RNA was reverse-transcribed with random hexamers and real-time RT-PCR was performed on the cDNA to quantify gene expression.
(§3) The brain was removed and then lysed in buffer RA1 and β-mercaptoethanol. Total RNA from the brain was isolated using NucleoSpin® RNA II kit. Total RNA was reverse-transcribed with random hexamers and real-time RT-PCR was performed on the cDNA to quantify gene expression. The same procedure is carried out for mice treated with KA (1×2 mg/kg).

GFAP gene expression = experiment: Real-time RT-PCR of brain RNA, GFAP gene expression; format: in vivo, mouse; conditions: transgenic mice, 2 hours after treatment, 1×2 mg/kg, p<0.01
Experimental: as §2, §3

Cc1ccccc1C1=CCN(C)CC1 [2′-CH3-MPTP, 1-methyl-4-(2′-methylphenyl)-1,2,3,6-tetrahydropyridine]
expression of the GFAP-GFP transgene in the astrocytes ([1]; SNC sections, 6 hr post-treatment as compared to 0 hr, 12 mg/kg sc): up-regulation
GFP expression in the astrocytes ([1]; ventricle and hippocampus area, 6 hr after one-time 12 mg/kg sc): evidently increased
TH immuno-positive fibers and cell bodies / TH-like immunoreactivity [2]: No visual reduction; also recorded: No obvious changes
increase in relative fluorescence (RF), mean, compared to 0 hr (GFAP-GFP transgene; single dose 12 mg/kg sc, neonatal mice, P<0.0001): 17%
increase in relative fluorescence (RF), mean, over the control group (GFAP-GFP transgene; single dose 12 mg/kg sc, neonatal mice, brain ROI): 22%
difference in relative fluorescence (RF) between treated and control group (GFAP-GFP transgene; single dose 12 mg/kg sc, at 4 hr, 6 hr and 8 hr after treatment): significant difference

C=C(C)[C@H]1CN[C@H](C(=O)O)[C@H]1CC(=O)O [KA, Kainic acid]
enhancement in gene expression of GFP (GFP gene expression): ~22%
GFP expression in the astrocytes ([1]; various areas of the hippocampus (CA1, CA2, CA3), 6 hr after one-time 2 mg/kg sc): evidently increased
increase in relative fluorescence (RF), mean, compared to 0 hr (GFAP-GFP transgene; single dose 2 mg/kg sc, P<0.05): 22%
increase in relative fluorescence (RF), mean, over the control group (GFAP-GFP transgene; single dose 2 mg/kg sc, neonatal mice): 25%
difference in relative fluorescence (RF) between treated and control group (GFAP-GFP transgene; single dose 2 mg/kg sc, at 4 hr and 6 hr after treatment): significant difference
enhancement in gene expression of GFAP (GFAP gene expression): about 21%

CN1CC=C(c2ccccc2)CC1 [MPTP, 1-methyl-4-phenyl-1,2,3,6-tetrahydropyridine]
difference in RF between the different time intervals (GFAP-GFP transgene; single dose 12 mg/kg sc, neonatal transgenic mice (FIG. 9)): no significant difference
